Reference: US8729113B2 (Hoffmann-La Roche Inc., priority 2008, dated 2014)

target: TAAR1 (Mus musculus (Mouse), UniProt Q923Y8); assay: Radioligand binding assay on TAAR1 (membranes of stably transfected HEK293 cells); conditions: competition with [3H]-rac-2-(1,2,3,4-tetrahydro-1-naphthyl)-2-imidazoline, 4° C., 30 min
Description: For the construction of expression plasmids the coding sequences of human, rat and mouse TAAR 1 were amplified from genomic DNA essentially as described by Lindemann et al.. The Expand High Fidelity PCR System (Roche Diagnostics) was used with 1.5 mM Mg^2+ and purified PCR products were cloned into pCR2.1—TOPO cloning vector (Invitrogen) following the instructions of the manufacturer. PCR products were subcloned into the pIRESneo2 vector (BD Clontech, Palo Alto, Calif.), and expression vectors were sequence verified before introduction in cell lines.
HEK293 cells (ATCC # CRL-1573) were cultured essentially as described Lindemann et al. (2005). For the generation of stably transfected cell lines HEK293 cells were transfected with the pIRESneo2 expression plasmids containing the TAAR coding sequences (described above) with Lipofectamine 2000 (Invitrogen) according to the instructions of the manufacturer, and 24 hrs post transfection the culture medium was supplemented with 1 mg/ml G418 (Sigma, Buchs, Switzerland). After a culture period of about 10 d clones were isolated, expanded and tested for responsiveness to trace amines (all compounds purchased from Sigma) with the cAMP Biotrak Enzyme immunoassay (EIA) System (Amersham) following the non-acetylation EIA procedure provided by the manufacturer. […] Membrane Preparation and Radioligand Binding
Cells at confluence were rinsed with ice-cold phosphate buffered saline without Ca^2+ and Mg^2+ containing 10 mM EDTA and pelleted by centrifugation at 1000 rpm for 5 min at 4° C. The pellet was then washed twice with ice-cold phosphate buffered saline and cell pellet was frozen immediately by immersion in liquid nitrogen and stored until use at −80° C. Cell pellet was then suspended in 20 ml HEPES-NaOH (20 mM), pH 7.4 containing 10 mM EDTA, and homogenized with a Polytron (PT 3000, Kinematica) at 10,000 rpm for 10 s. The homogenate was centrifuged at 48,000×g for 30 min at 4° C. and the pellet resuspended in 20 ml HEPES-NaOH (20 mM), pH 7.4 containing 0.1 mM EDTA (buffer A), and homogenized with a Polytron at 10,000 rpm for 10 s. The homogenate was then centrifuged at 48,000×g for 30 min at 4° C. and the pellet resuspended in 20 ml buffer A, and homogenized with a Polytron at 10,000 rpm for 10 s. Protein concentration was determined by the method of Pierce (Rockford, Ill.). The homogenate was then centrifuged at 48,000×g for 10 min at 4° C., resuspended in HEPES-NaOH (20 mM), pH 7.0 including MgCl2 (10 mM) and […] homogenized with a Polytron at 10,000 rpm for 10 s.
Binding assay was performed at 4° C. in a final volume of 1 ml, and with an incubation time of 30 min. The radioligand [^3H]-rac-2-(1,2,3,4-tetrahydro-1-naphthyl)-2-imidazoline was used at a concentration equal to the calculated Kd value of 60 nM to give a bound at around 0.1% of the total added radioligand concentration, and a specific binding which represented approximately 70-80% of the total binding. Non-specific binding was defined as the amount of [^3H]-rac-2-(1,2,3,4-tetrahydro-1-naphthyl)-2-imidazoline bound in the presence of the appropriate unlabelled ligand (10 μM). Competing ligands were tested in a wide range of concentrations […]. […] Each experiment was performed in duplicate. All incubations were terminated by rapid filtration through UniFilter-96 plates (Packard Instrument Company) and glass filter GF/C, pre-soaked for at least 2 h in polyethylenimine 0.3%, and using a Filtermate 96 Cell Harvester (Packard Instrument Company). The tubes and filters were then washed 3 times with 1 ml aliquots of cold buffer B. Filters were not dried and soaked in Ultima gold (45 μl/well, Packard Instrument Company) and bound radioactivity was counted by a TopCount Microplate Scintillation Counter (Packard Instrument Company).

TAAR1, sequence (Q923Y8 whole entry): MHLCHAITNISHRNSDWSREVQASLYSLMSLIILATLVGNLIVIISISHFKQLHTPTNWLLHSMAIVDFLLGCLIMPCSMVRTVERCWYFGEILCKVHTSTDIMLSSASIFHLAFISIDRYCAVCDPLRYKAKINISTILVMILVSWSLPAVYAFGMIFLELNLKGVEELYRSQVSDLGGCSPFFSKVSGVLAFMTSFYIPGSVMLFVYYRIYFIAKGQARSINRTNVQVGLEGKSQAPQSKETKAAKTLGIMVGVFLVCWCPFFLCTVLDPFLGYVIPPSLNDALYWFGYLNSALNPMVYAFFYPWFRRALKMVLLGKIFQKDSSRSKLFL

SMILES	Ki
CC(OC[C@H]1COC(N)=N1)c1ccccc1 (stereo partly drawn) [Example 24, (4S)-4-(1-Phenyl-ethoxymethyl)-4,5-dihydro-oxazol-2-ylamine]	0.0084 µM
CC[C@@H](C[C@H]1COC(N)=N1)Oc1cc(F)c(F)cc1F [Example 152, (S)-4-[(S)-2-(2,4,5-Trifluoro-phenoxy)-butyl]-4,5-dihydro-oxazol-2-ylamine]	0.0029 µM
COc1cccc(OCC[C@H]2COC(N)=N2)c1 [Example 20, (S)-4-[2-(3-Methoxy-phenoxy)-ethyl]-4,5-dihydro-oxazol-2-ylamine]	0.0025 µM
NC1=N[C@@H](CCOc2ccc(Br)cc2)CO1 [Example 55, (S)-4-[2-(4-Bromo-phenoxy)-ethyl]-4,5-dihydro-oxazol-2-ylamine]	0.0025 µM
NC1=N[C@@H](CCC2(c3ccc(F)cc3)CC2)CO1 [Example 60, (S)-4-{2-[1-(4-Fluoro-phenyl)-cyclopropyl]-ethyl}-4,5-dihydro-oxazol-2-ylamine]	0.0025 µM
NC1=N[C@@H](CCOc2cccc(-c3ccccc3)c2)CO1 [Example 33, (S)-4-[2-(Biphenyl-3-yloxy)-ethyl]-4,5-dihydro-oxazol-2-ylamine]	0.0018 µM
C[C@@H](C[C@H]1COC(N)=N1)Oc1ccc(Cl)c(F)c1 [Example 70, (S)-4-[(S)-2-(4-Chloro-3-fluoro-phenoxy)-propyl]-4,5-dihydro-oxazol-2-ylamine]	0.0036 µM
NC1=N[C@@H](CCOc2cccc(OC(F)(F)F)c2)CO1 [Example 19, (S)-4-[2-(3-Trifluoromethoxy-phenoxy)-ethyl]-4,5-dihydro-oxazol-2-ylamine]	0.0021 µM
C[C@@H](C[C@H]1COC(N)=N1)Oc1ccc(F)cc1 [Example 64]	0.0076 µM
CC[C@@H](C[C@H]1COC(N)=N1)Oc1cccc(O)c1 [Example 141, 3-[(S)-1-((8)-2-Amino-4,5-dihydro-oxazol-4-ylmethyl)-propoxy]-phenol]	0.0037 µM
C[Si](C)(CC[C@H]1COC(N)=N1)c1ccc(Cl)cc1 [Example 67, (S)-4-{2-[(4-Chloro-phenyl)-dimethyl-silanyl]-ethyl}-4,5-dihydro-oxazol-2-ylamine]	0.0046 µM
C[C@H](C[C@H]1COC(N)=N1)Oc1ccc(F)c(Cl)c1 [Example 85, (S)-4-[(R)-2-(3-Chloro-4-fluoro-phenoxy)-propyl]-4,5-dihydro-oxazol-2-ylamine]	0.0059 µM

These reach a lower Ki. Values come first.

Ki	SMILES
0.0013 µM	NC1=N[C@@H](CCC2(c3cc(F)cc(F)c3)CC2)CO1 [Example 142, (S)-4-{2-[1-(3,5-Difluoro-phenyl)-cyclopropyl]-ethyl}-4,5-dihydro-oxazol-2-ylamine]
0.0011 µM	NC1=N[C@@H](CCOc2ccc(F)cc2F)CO1 [Example 11, (S)-4-[2-(2,4-Difluoro-phenoxy)-ethyl]-4,5-dihydro-oxazol-2-ylamine]
0.0014 µM	CC[C@@H](C[C@H]1COC(N)=N1)Oc1ccc(F)c(Cl)c1 [Example 120, (S)-4-[(S)-2-(3-Chloro-4-fluoro-phenoxy)-butyl]-4,5-dihydro-oxazol-2-ylamine]
0.0011 µM	CC[C@@H](C[C@H]1COC(N)=N1)Oc1ccc2ccccc2c1 [Example 153, (S)-4-[(S)-2-(Naphthalen-2-yloxy)-butyl]-4,5-dihydro-oxazol-2-ylamine]
0.0005 µM	NC1=N[C@@H](CCC2(c3ccc(Br)cc3)CC2)CO1 [Example 144, (S)-4-{2-[1-(4-Bromo-phenyl)-cyclopropyl]-ethyl}-4,5-dihydro-oxazol-2-ylamine]
0.0012 µM	C[C@@H](C[C@H]1COC(N)=N1)Oc1cccc(Cl)c1 [Example 68, (S)-4-[(S)-2-(3-Chloro-phenoxy)-propyl]-4,5-dihydro-oxazol-2-ylamine]
0.0007 µM	CC[C@@H](C[C@H]1COC(N)=N1)Oc1ccc(Cl)c(Cl)c1 [Example 122, (S)-4-[(S)-2-(3,4-Dichloro-phenoxy)-butyl]-4,5-dihydro-oxazol-2-ylamine]
0.0007 µM	Cc1cccc(OCC[C@H]2COC(N)=N2)c1 [Example 32, (S)-4-(2-m-Tolyloxy-ethyl)-4,5-dihydro-oxazol-2-ylamine]
